The record followed here is patent US20240043403A1, “HETEROARYL CARBOXAMIDE COMPOUND” (Astellas Pharma Inc., priority 2020, published 2024).

The structures appear in SMILES notation. Counter-ions that a name gives are not always drawn.

Test [1] deals with IL-2 production in Jurkat E6.1 cells. The experiment in a line: Evaluation of IL-2 production in human T-cell leukemia cell line Jurkat E6.1 (TCR stimulation anti-CD3/anti-CD28). The class given is cell-based. The note with it: Jurkat E6.1, 24 h, concentration at which IL-2 increased to 10 times the solvent control, Jurkat E6.1, anti-CD3/anti-CD28, 24 hours. Here is the method: Test Example 2. Evaluation of Il-2 Production in Human T-Cell Leukemia Cell Line Jurkat E6.1
The effect of the test compound on the IL-2 production by T-cell receptor (TCR) stimulation (anti-CD3/anti-CD28) in Jurkat E6.1 cells (ECACC, 88042803) was evaluated.
A 5 μg/mL anti-CD3 antibody (eBioscience, Inc., OKT3 clone) diluted with phosphate buffer saline (PBS) was added to a 96-well plate (Iwaki & Co., Ltd.) at 50 μL/well, and left standing at 4° C. for 12 hours or more to provide an anti-CD3 antibody-coated plate in advance. When the plate was used for experiments, the plate was washed with 200 μL of PBS once, an anti-CD28 antibody (eBioscience, Inc., 28.2 clone) diluted to a concentration of 10 μg/mL with a culture medium (RPMI1640 (Sigma-Aldlich Co. LLC.) containing 10% fetal bovine serum (Hyclone Laboratories, Inc.)) was then added at 10 μL/well, and the plate was used for assay as a culture plate for TCR stimulation.
Subsequently, the test compound was mixed with Jurkat E6.1 cells in such a manner that an intended final concentration was obtained, and the mixture was plated at 90 μL/well so that the number of cells per well was 1×10^5(that is, finally the culture was performed at 1×10^5 cells/100 μL/well). For culture cell conditions, the culture was performed at 37° C. in the presence of 5% CO2 using RPMI1640 medium containing 10% fatal bovine serum.
After 24 hours, the culture supernatant was collected, and IL-2 was quantitatively determined using AlphaLISA human IL2 Immunoassay Research Kit (PerkinElmer, Inc.). The IL-2 measurement was performed under Alpha Screen standard setting conditions (the fluorescence intensity at 570 nm was measured with an excitation wavelength of 680 nm) using EnVision 2104-0010 and EnVision 2104-0020 (PerkinElmer, Inc.). The IL-2 quantitative value of the solvent treatment control was set to 1, and the test compound concentration at which the IL-2 quantitative value of the test compound treatment sample increased to 10 times the IL-2 quantitative value of the control (EC10fold) was calculated by inverse estimation with the aid of Sigmoid-Emax model non-linear regression analysis. […] In the table, Ex represents the number of each Example described below.

The target in the next test is human recombinant DGK ξ (Homo sapiens (Human), UniProt Q13574). The experiment in a line: Evaluation of DGK ξ inhibitory effect (ADP-Glo Kinase Assay). The class given is biochemical. Conditions: ADP-Glo luminescence. Put shortly: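 Enzyme was pre-incubated with compound for 15 min at room temperature in Tris-HCl pH 7.5 with MgCl2, DTT and BSA. The reaction ran 30 min after adding a substrate mix (pre-addition: 150 μM 1-oleoyl-2-acetyl-sn-glycerol, 480 μM phosphatidylserine, 150 μM ATP), with ADP-Glo luminescence read-out. IC50 came from Sigmoid-Emax regression, with solvent as 0% and no-enzyme as 100% inhibition.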
Sequence of human recombinant DGK ξ (Q13574 whole entry): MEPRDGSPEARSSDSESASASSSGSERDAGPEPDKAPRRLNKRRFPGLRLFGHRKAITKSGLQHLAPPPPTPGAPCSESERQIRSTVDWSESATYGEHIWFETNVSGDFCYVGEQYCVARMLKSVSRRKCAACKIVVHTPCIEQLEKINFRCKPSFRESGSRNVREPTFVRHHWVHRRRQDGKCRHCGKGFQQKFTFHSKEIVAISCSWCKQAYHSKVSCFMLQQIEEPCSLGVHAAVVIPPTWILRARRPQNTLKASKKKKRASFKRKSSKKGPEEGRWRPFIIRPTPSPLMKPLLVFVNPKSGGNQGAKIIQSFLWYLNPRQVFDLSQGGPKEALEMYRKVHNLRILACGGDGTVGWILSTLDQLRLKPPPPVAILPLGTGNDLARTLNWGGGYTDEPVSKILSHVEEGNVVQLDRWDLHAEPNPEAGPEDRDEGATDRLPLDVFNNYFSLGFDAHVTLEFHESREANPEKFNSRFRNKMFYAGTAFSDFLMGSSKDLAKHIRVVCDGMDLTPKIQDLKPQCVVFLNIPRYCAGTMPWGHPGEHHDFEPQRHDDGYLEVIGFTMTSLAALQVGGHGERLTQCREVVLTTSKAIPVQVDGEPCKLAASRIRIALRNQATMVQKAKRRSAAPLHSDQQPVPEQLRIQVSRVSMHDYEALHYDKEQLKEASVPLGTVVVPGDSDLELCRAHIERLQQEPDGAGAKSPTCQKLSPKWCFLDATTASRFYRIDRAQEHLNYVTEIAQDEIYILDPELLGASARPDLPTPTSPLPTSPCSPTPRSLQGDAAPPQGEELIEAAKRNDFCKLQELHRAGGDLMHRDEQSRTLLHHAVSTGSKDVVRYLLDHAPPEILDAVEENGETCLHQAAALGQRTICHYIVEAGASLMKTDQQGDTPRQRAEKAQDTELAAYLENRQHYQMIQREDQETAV
For orientation: ADP-Glo turns the ADP formed in a reaction into a luminescent signal.

For the next test, the system named is B16-F1 cells. Put plainly: Evaluation of antitumor effect in syngeneic mouse model bearing mouse melanoma cell line B16-F1. The test is classed as in vivo. Conditions: po, 240 h, C57BL/6J mice bearing B16-F1, read-out: Antitumor effect (relative tumor growth inhibition); for inhibition in vivo at 0.3 mg/kg: 0.3 mg/kg orally once daily for 10 days. Here is the method: Test Example 3: Evaluation of Antitumor Effect in Syngeneic Mouse Model Bearing Mouse Melanoma Cell Line B16-F1
A cell suspension liquid prepared by suspending B16-F1 cells (ATCC, CRL-6323) in PBS at 2.0×10^6 cells/mL was subcutaneously inoculated into 5-week-old female mice (C57BL/6J from Charles River Laboratories Japan, Inc.) in a volume of 50 μL. 5 days after the inoculation, the mice were grouped in such a manner that there was substantially no difference in tumor volume between groups, and administration of the test compound was started. The test was conducted with a solvent group and a test compound administration group each having 10 mice. 0.5% methylcellulose (Shin-Etsu Chemical Co., Ltd.) was orally administered to the solvent group, and 0.5% methylcellulose mixed with the test compound was orally administered to the test compound administration group. The administration was performed for 10 days once daily, and the tumor diameter and the body weight were measured twice a week. The following expression was used for calculation of the tumor volume.
[tumor volume (mm^3)]=[tumor major diameter […]]×[tumor minor diameter (mm)]^2×0.5
The relative tumor growth inhibition (%) of the test compound was calculated, where the tumor volume of the solvent group immediately before the start of administration was set to 100% inhibition, and the tumor volume of the solvent group on the day after the last administration was set to 0% inhibition. […] In the table, Ex represents the number of each Example described below.

One may read the IC50 as the concentration that inhibits the measured activity by half. In the case of `CN1CCN(c2c(NC(=O)c3ccn(CC(F)F)n3)ccc(Oc3ccccc3Cl)c2Cl)C[C@@H]1CN` [Example 20], the EC (10-fold increase) in test [1] was found to be 0.036 µM. The IC50 at human recombinant DGK ξ turned out to be 20 nM. In the test with B16-F1 cells, the inhibition in vivo at 0.3 mg/kg amounted to 33%.

In the case of `CN1CCN(c2c(NC(=O)c3ccn(CC(F)F)n3)ccc(Oc3ccccc3Cl)c2C(F)(F)F)C[C@@H]1CN` [Example 13], the EC (10-fold increase) in test [1] is 0.34 µM. Besides, the IC50 at human recombinant DGK ξ was 18 nM. The inhibition in vivo at 0.3 mg/kg in the test on B16-F1 cells came out at 36%.

Take `NC[C@@H]1CCCN(c2c(NC(=O)c3ccn(CC(F)F)n3)ccc(Oc3ccccc3F)c2C(F)(F)F)C1` [Example 1, monohydrochloride]: the EC (10-fold increase) in test [1] stood at 0.11 µM. For the same compound, the inhibition in vivo at 0.03 mg/kg in the test with B16-F1 cells (0.03 mg/kg orally once daily for 10 days) came out at 35%.

For `CNC[C@H]1CN(c2c(NC(=O)c3ccn(-c4ccnnc4)n3)ccc(Oc3ccccc3F)c2Cl)CCN1C` [Example 86, N-[3-chloro-4-(2-fluorophenoxy)-2-{(3S)-4-methyl-3-[(methylamino)methyl]piperazin-1-yl}phenyl]-1-(pyridazin-4-yl)-1H-pyrazole-3-carboxamide], the IC50 on human recombinant DGK ξ stood at 2.9 nM. Further, the inhibition in vivo at 0.3 mg/kg in the test with B16-F1 cells turned out to be 31%.

As for `N[C@@H]1CCN2CCN(c3c(NC(=O)c4coc(-c5ccnnc5)n4)ccc(Oc4ccccc4F)c3C(F)(F)F)C[C@@H]12` [Example 80], in test [1], the EC (10-fold increase) came out at 0.46 µM. Besides, the IC50 on human recombinant DGK ξ was found to be 45 nM. The inhibition in vivo at 0.3 mg/kg in the test on B16-F1 cells came to 31%.

In the case of `CNC[C@H]1CN(c2c(NC(=O)c3ccn(-c4ccnnc4)n3)ccc(C3CCCC3)c2C(F)(F)F)CCN1C` [Example 48], the IC50 at human recombinant DGK ξ is 5.8 nM. For the same compound, in the test on B16-F1 cells, the inhibition in vivo at 0.3 mg/kg came out at 40%.
